Here are results for 21 compounds from patent US9221809B2 (MERCK SHARP & DOHME CORP., priority 2011, dated 2015).

The term IC50 denotes the midpoint of a concentration-inhibition curve.

Counter-ions that a name gives are not always drawn. Like-named read-outs stand apart in the source and are kept apart here.

This assay concerns the target IRAK4 (Homo sapiens (Human), UniProt Q9NWZ3). Briefly: IRAK4 kinase activity, IMAP fluorescence polarization assay. The class given is biochemical. The note with it: 100 μM ATP. In outline:
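Fluorescence polarization (IMAP nanoparticle binding of phosphopeptide) reports activity after a 30 min, 25 °C reaction. Conditions: 100 μM ATP, 0.5 nM GST-IRAK4, 100 nM fluorescent peptide, 10 mM Tris pH 7.2, 1 mM MgCl2, 1 mM DTT, 0.01% Tween 20.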
A general note: In fluorescence polarisation assays a small probe gives low polarisation when free and higher when bound to something large.

Setting [1] is: 0.5 nM GST tagged IRAK4, read-out: IRAK4 IC50.

Chain of IRAK4 (Q9NWZ3 whole entry): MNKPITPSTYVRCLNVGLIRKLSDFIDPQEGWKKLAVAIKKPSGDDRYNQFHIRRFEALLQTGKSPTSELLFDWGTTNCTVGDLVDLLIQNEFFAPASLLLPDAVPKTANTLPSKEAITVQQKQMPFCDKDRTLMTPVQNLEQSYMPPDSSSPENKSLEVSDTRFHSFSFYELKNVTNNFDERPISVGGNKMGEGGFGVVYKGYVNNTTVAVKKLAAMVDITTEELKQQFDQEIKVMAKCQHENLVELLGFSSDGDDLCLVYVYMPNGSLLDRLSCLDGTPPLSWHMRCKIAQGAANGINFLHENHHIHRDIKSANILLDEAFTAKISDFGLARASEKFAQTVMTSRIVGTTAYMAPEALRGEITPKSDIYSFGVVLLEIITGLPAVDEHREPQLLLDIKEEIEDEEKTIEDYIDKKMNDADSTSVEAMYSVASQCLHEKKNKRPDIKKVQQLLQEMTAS

On to `O=c1[nH]c(N2CCN(c3ncccn3)CC2)nc(N[C@@H]2CCCNC2)c1-c1nc(-c2ccc(F)cc2)cs1` [Example 350, 5-[4-(4-fluorophenyl)-1,3-thiazol-2-yl]-6-[[(3R)-piperidin-3-yl]amino]-2-[4-(pyrimidin-2-yl)piperazin-1-yl]-3,4-dihydropyrimidin-4-one; trifluoroacetic acid], for which the IC50 (read-out: IC50) amounted to 21 nM.
Same read-out and setting: for `O=c1[nH]c(C2CCN(c3ncccn3)CC2)nc(N[C@@H]2CCCNC2)c1-c1nc2ccccc2s1` [Example 244, (R)-5-(benzo[d]thiazol-2-yl)-6-(piperidin-3-ylamino)-2-(1-(pyrimidin-2-yl)piperidin-4-yl)pyrimidin-4(3H)-one] the value was 260 nM.
For `C[C@H]1C[C@@H](Nc2nc(N3CCOCC3)[nH]c(=O)c2-c2nc3ccccc3s2)[C@H](O)[C@@H]1O` [Example 47, 5-(Benzo[d]thiazol-2-yl)-6-((1R,2S,3R,4S)-2,3-dihydroxy-4-methylcyclopentylamino)-2-morpholinopyrimidin-4(3H)-one.HCl], the IC50 under setting [1] amounted to 23 nM.
`O=c1[nH]c(N2CCOCC2)nc(NC(CO)CO)c1-c1nc2ccccc2s1` [Example 270, 5-(benzo[d]thiazol-2-yl)-6-(1,3-dihydroxy-propan-2-ylamino)-2-morpholinopyrimidin-4(3H)-one]: under “read-out: IC50”, the IC50 came to 110 nM.
For the compound `O=c1[nH]c(N2CCCC2)nc(N[C@@H]2C[C@H](CO)[C@@H](O)[C@H]2O)c1-c1nc2ccccc2s1` [Example 25, 5-(Benzo[d]thiazol-2-yl)-6-(((1R,2S,3R,4R)-2,3-dihydroxy-4-(hydroxymethyl)cyclopentyl)amino)-2-(pyrrolidin-1-yl)pyrimidin-4(3H)-one.HCl], under setting [1], the IC50 came out at 18 nM.
On the same count and under the same terms, as for `CS(=O)(=O)N1CCC(Nc2nc(N[C@@H]3C[C@H](CO)[C@@H](O)[C@H]3O)c(-c3nc4ccccc4s3)c(=O)[nH]2)CC1` [Example 10, 5-(Benzo[d]thiazol-2-yl)-6-((1R,2S,3R,4R)-2,3-dihydroxy-4-(hydroxymethyl)cyclopentylamino)-2-(1-(methylsulfonyl)piperidin-4-ylamino)pyrimidin-4(3H)-one.HCl], the figure is 545 nM.
In the case of `NC1CCN(c2nc(N[C@@H]3CCCNC3)c(-c3nc4ccccc4s3)c(=O)[nH]2)CC1` [Example 322, 2-(4-aminopiperidin-1-yl)-5-(1,3-benzothiazol-2-yl)-6-[[(3R)-piperidin-3-yl]amino]-3,4-dihydropyrimidin-4-one; trifluoroacetic acid], the IC50 (read-out: IC50) amounted to 240 nM.
The same measure, in the same setting: as for `CCN1CCCC1CNc1nc(N2CCOCC2)[nH]c(=O)c1-c1nc2ccccc2s1` (stereo not drawn) [Example 255, 5-(1,3-benzothiazol-2-yl)-6-[[(1-ethylpyrrolidin-2-yl)methyl]amino]-2-(morpholin-4-yl)-3,4-dihydropyrimidin 4-one], the figure is 2000 nM.
Same read-out and setting: for `O=c1[nH]c(N[C@H]2c3ccccc3C[C@H]2O)nc(N[C@@H]2CCCNC2)c1-c1nc2ccccc2s1` [Example 298, 5-(1,3-benzothdazol-2-yl)-2-[[(1S,2R)-2-hydroxy-2,3-dihydro-1H-inden-1-yl]amino]-6-[[(3R)-piperidin-3-yl]amino]pyrimidin-4-ol; formic acid] the value was 2500 nM.
For the compound `COc1ccnc(N2CCN(c3nc(N[C@@H]4CCCNC4)c(-c4nc5ccccc5s4)c(=O)[nH]3)CC2)c1` [Example 142, (R)-5-(benzo[d]thiazol-2-yl)-2-(4-(4-methoxypyridin-2-yl)piperazin-1-yl)-6-(piperidin-3-ylamino)pyrimidin-4(3H)-one], the IC50 (read-out: IRAK4 IC50) worked out at 6 nM.
As to `N[C@@H]1CCCC[C@H]1Nc1cccc2sc(-c3c(N[C@@H]4CCCNC4)nc(N4CCOCC4)[nH]c3=O)nc12` (racemic) [Example 352, 5-(4-[[(trans, rac)-2-aminocyclohexyl]amino]-1,3-benzothiazol-2-yl)-2-(morpholin-4-yl)-6-[[(3R)-piperidin-3-yl]amino]-3,4-dihydropyrimidin-4-one], the IC50 under setting [1] turned out to be 5400 nM.
Still for that read-out and setting: for `CN1CCN(c2nc(N[C@@H]3CCCNC3)c(-c3ccc4ccccc4n3)c(=O)[nH]2)CC1` [Example 116, (R)-2-(4-methylpiperazin-1-yl)-6-(piperidin-3-ylamino)-5-(quinolin-2-yl)pyrimidin-4(3H)-one.HCl] the value was 97 nM.
As for `O=c1[nH]c(N2CCN(c3ccc(Cl)c(Cl)c3)CC2)nc(N[C@@H]2CCCNC2)c1-c1nc2ccccc2s1` [Example 153, (R)-5-(benzo[d]thiazol-2-yl)-2-(4-(3,4-dichlorophenyl)piperazin-1-yl)-6-(piperidin-3-ylamino)pyrimidin-4(3H)-one], the IC50 (read-out: IRAK4 IC50) was determined as 57 nM.
Same read-out and setting: for `Cc1ccccc1C1CCN(c2nc(N[C@@H]3CCCNC3)c(-c3ccc4ccccc4n3)c(=O)[nH]2)CC1` [Example 188, (R)-6-(piperidin-3-ylamino)-5-(quinolin-2-yl)-2-(4-(o-tolyl)piperidin-1-yl)pyrimidin-4(3H)-one] the value was 17 nM.
`O=c1[nH]c(NC2CCCC2)nc(N[C@@H]2C[C@H](CO)[C@@H](O)[C@H]2O)c1-c1nc2ccccc2s1` [Example 4, 5-(Benzo[d]thiazol-2-yl)-2-(cyclopentylamino)-6-((1R,2S,3R,4R)-2,3-dihydroxy-4-(hydroxymethyl)cyclopentylamino)pyrimidin-4(3H)-one.HCl]: the concentration for half-maximal inhibition (IC50) under setting [1] is 92 nM.
As for `O=c1[nH]c(NC2CCC2)nc(N[C@@H]2C[C@H](CO)[C@@H](O)[C@H]2O)c1-c1nccs1` [Example 22, 2-(Cyclobutylamino)-6-((1R,2S,3R,4R)-2,3-dihydroxy-4-(hydroxymethyl)cyclopentylamino)-5-(thiazol-2-yl)pyrimidin-4(3H)-one.HCl], the concentration for half-maximal inhibition (IC50) under setting [1] is 1110 nM.
For `O=c1[nH]c(N[C@@H]2C[C@H](CO)[C@@H](O)[C@H]2O)c(-c2nc3ccccc3s2)c(=O)[nH]1` [Example 7, 5-(Benzo[d]thiazol-2-yl)-6-((1R,2S,3R,4R)-2,3-dihydroxy-4-(hydroxymethyl)cyclopentylamino)pyrimidine-2,4(1H,3H)-dione.HCl], the IC50 under setting [1] is 1490 nM.
`O=c1[nH]c(N2CCOCC2)nc(NCCN2CCNCC2)c1-c1nc2ccccc2s1` [Example 256, 5-(1,3-benzothiazol-2-yl)-2-(morpholin-4-yl)-6-[[2-(piperazin-1-yl)ethyl]amino]-3,4-dihydropyrimidin-4-one]: where the note is “read-out: IC50”, the half-inhibitory concentration (IC50) was found to be 55 nM.
For the compound `CC1CC(C)CN(c2nc(N[C@@H]3CCCNC3)c(-c3nc4ccccc4s3)c(=O)[nH]2)C1` (stereo partly drawn) [Example 296, 5-(1,3-benzothiazol-2-yl)-2-(3,5-dimethylpiperidin-1-yl)-6-[[(3R)-piperidin-3-yl]amino]-3,4-dihydropyrimidin-4-one trifluoroacetic acid], the IC50 (read-out: IC50) was 570 nM.
Same read-out and setting: for `CNC(=O)N1CCC(c2nc(N[C@@H]3CCCNC3)c(-c3nc4ccccc4s3)c(=O)[nH]2)CC1` [Example 240, (R)-4-[5-(1,3-benzo-thiazol-2-yl)-6-oxo-4-[[(3R)-piperidin-3-yl]amino]-1,6-dihydro-pyrimidin-2-yl]-N-methyl-piperidine-1-carboxamide] the value was 200 nM.
Same read-out and setting: for `CCC(CO)Nc1nc(N2CCOCC2)[nH]c(=O)c1-c1nc2ccccc2s1` (stereo not drawn) [Example 262, 5-(benzo[d]thiazol-2-yl)-6-(1-hydroxy-butan-2-ylamino)-2-morpholino-pyrimidin-4(3H)-one] the value was 330 nM.
